Test results from patent US20080255055A1, “Use of Derivatives of Dipeptides for the Manufacture of a Medicament for the Treamtent of Microbial Infections” (NEOBIOTICS AB, priority 2004, published 2008).
Converted amounts (≈) assume the structure as drawn. Non-standard residues stand in square brackets, D forms with d. dPhg = N[C@@H](C(=O)O)c1ccccc1; Phg = N[C@H](C(=O)O)c1ccccc1; code Z = not defined here; Orn = NCCC[C@H](N)C(=O)O; Mpa = O=C(O)CCS

How the values were obtained:
[1] = tested on: bacteria; test: Anti-bacterial activity (tables of particularly interesting compounds); format: cell-based; set-up: key: + indicates that the compound show effects
[2] = tested on: HSV-1 F; test: Virus inhibition analysis and plaque counting test in GMK AH 1 cells; format: cell-based, Herpes Simplex Virus; conditions: 10 PFU/cell, 48 hours, Cp1 0.4 mM in 1% DMSO, Acyclovir 1.0 mM
[3] = tested on: Streptococcus: group A; test: Agar well diffusion; conditions: 40 ul of 1 mg/ml in DMSO
[4] = tested on: CNS incl. resistant and multiresistant MRSE; test: Agar well diffusion; conditions: 40 ul of 1 mg/ml in DMSO
[5] = tested on: poliovirus type 1; format: cell-based; conditions: GMK AH 1 cells, 1 PFU/cell, 48 hours; Cp1 0.4 mM in 1% DMSO
[6] = tested on: S. aureus; test: MIC by broth dilution; format: cell-based; conditions: growth media without DMSO, solubility problems; true MIC might be lower
Protocol: (§1) The in vitro antibacterial activity of drugs is commonly estimated by testing their minimal inhibitory (MIC) and bactericidal (MBC) concentrations.
(§2) MIC/MBC determinations were performed by broth dilution according to established procedures, well known for a person skilled in the art.

[7] = tested on: S. pneumoniae; test: Agar well diffusion; conditions: 40 ul of 1 mg/ml in DMSO
[8] = tested on: Streptococcus: group C; test: Agar well diffusion; conditions: 40 ul of 1 mg/ml in DMSO
[9] = tested on: Streptococcus: group G; test: Agar well diffusion; conditions: 40 ul of 1 mg/ml in DMSO
[10] = tested on: GAS; test: MIC by broth dilution; format: cell-based, group A Streptococci; conditions: growth media without DMSO, solubility problems; true MIC might be lower
Protocol: as §1, §2

[11] = tested on: Staphylococci incl. multi-resistant MRSA; test: Agar well diffusion; conditions: for antibacterial effect, Staphylococci incl. multi-resistant MRSA: agar well diffusion, 40 ul of 1 mg/ml in DMSO; for growth inhibition of approximately 100 strain of MRSA: clinical isolates, several with additional antibiotic resistance markers
[12] = tested on: cysteine proteases; test: Protease inhibitory activity; format: biochemical
[13] = Solubility; format: physicochemical
[14] = tested on: L. monocytogenes; test: Agar well diffusion; conditions: 40 ul of 1 mg/ml in DMSO
[15] = tested on: lethal strept challenge; test: Protection against lethal strept challenge; format: in vivo; conditions: mouse
[16] = tested on: labial herpes; test: Topical application to beginning labial herpes outbreak; format: in vivo; conditions: Cp1 in softening cream, 0.2 ml solution (0.1 g/l) on the lip of a person; performed twice
[17] = tested on: Aspergillus niger ATCC 16404; test: Antifungal MIC in Sabouraud broth; format: cell-based; conditions: 25° C., 7 days
Protocol: (§3) The minimal inhibitory concentration (MIC) was determined using a method with Sabouraud broth (Becton Dickinson) and an initial inoculum 10^3-10^4 cfu/ml. Polypropylene 96-well plates (Nunc) were incubated at 25° C. for 48 h (for Candida albicans ATCC 10231) or 7 days (for Aspergillus niger ATCC 16404). The MIC was taken as the lowest drug concentration at which noticeable growth was inhibited. The experiments were performed in duplicate.

[18] = tested on: Candida albicans ATCC 10231; test: Antifungal MIC in Sabouraud broth; format: cell-based; conditions: 25° C., 48 h
Protocol: as §3

[19] = tested on: E. coli and other Gram-negatives; test: Agar well diffusion; conditions: for antibacterial effect, E. coli and other Gram-negatives: agar well diffusion, 40 ul of 1 mg/ml in DMSO
[20] = tested on: α-haemolytic Streptococci; test: Agar well diffusion; conditions: 40 ul of 1 mg/ml in DMSO
[21] = tested on: Streptococcus: group B; test: Agar well diffusion; conditions: 40 ul of 1 mg/ml in DMSO

For cyclo([dPhg]RLV[dPhg]RLV), the “Activity Anti-bacterial” value [1] was “+”.
With “cyclo(Tyr-Arg-Leu-Val-Tyr-Arg-Leu-Val) (YRLVYRLV; cyclic; printed: Tyr-Arg-Leu-Val-Tyr-Arg-Leu-Val)” the “Activity Anti-bacterial” value [1] was “+”.
With CC(C)CC(NC(=O)C(CCCN=C(N)N)NC(=O)OCc1ccccc1)C(=O)N[C@H](CNC(=O)/C=C/c1ccccc1)C(C)C (stereo in doubt) [Cp1, (2S)-2-[(N^α-Benzyloxycarbonyl-arginyl-leucyl)-amino]-1-trans-cinnamoylamino-3-methylbutane] the HSV-1 plaques [2] was 1.0 × 10^3, the “antibacterial effect, Streptococcus: group A” value [3] was “+” and the “antibacterial effect, CNS incl. resistant and multiresistant MRSE” value [4] was “+”. The Polio plaques [5] was 2.6 × 10^5, the “MIC for S. aureus” value [6] was “approximately 16 mg/L” and the “antibacterial effect, S. pneumoniae” value [7] was “+”. For the same compound, the “antibacterial effect, Streptococcus: group C” value [8] was “+”, the “antibacterial effect, Streptococcus: group G” value [9] was “+” and the “MIC for GAS” value [10] was “approximately 16 mg/L”. For the same compound, the “antibacterial effect, Staphylococci incl. multi-resistant MRSA” value [11] was “+”, the “growth inhibition of approximately 100 strain of MRSA” value [11] was “strongly inhibited in their growth” and the protease inhibitory activity [12] was “devoid of any detectable protease inhibitory activity”. For the same compound, the “solubility in DMSO” value ([13]; DMSO) was “soluble in DMSO to high concentrations”, the solubility in water ([13]; water) was “less soluble in water” and the “antibacterial effect, L. monocytogenes” value [14] was “+”. For the same compound, the “protective capacity for lethal strept challenge” value [15] was “strong protective capacity”, the “time after which symptoms of beginning labial herpes outbreak was gone” value [16] was “Cp1 was added to a softening cream and 0.2 ml solution (0.1 g/l) was applied to an area of a beginning labial herpes outbreak on the lip of a person. After 3-4 hours the symptoms was gone. The experiment was performed twice” and the “MIC Aspergillus niger ATCC 16404” value [17] was 64 µg/mL (≈ 101 µM). For the same compound, the “MIC Candida albicans ATCC 10231” value [18] was 32 µg/ml, the “activity against gram-negative bacteria” value [19] was “low or no activity” and the “antibacterial effect, E. coli and other Gram-negatives” value [19] was “−”. For the same compound, the “antibacterial effect, α-haemolytic Streptococci” value [20] was “−” and the “antibacterial effect, Streptococcus: group B” value [21] was “+”.
With “cyclo(Phe-Arg-Leu-Val-Phe-Arg-Leu-Val) (FRLVFRLV; cyclic; printed: Phe-Arg-Leu-Val-Phe-Arg-Leu-Val)” the “Activity Anti-bacterial” value [1] was “+”.
For Z-Arg-Leu-Val-cinnamoylamide, the “Activity Anti-bacterial” value [1] was “+”.
With “Z-Arg-Leu-Val-Phe-NH2 ({code Z}-RLVF-NH2; reading uncertain; also: printed as Z-Arg-Leu-Val-Phe-NH2)” the “Activity Anti-bacterial” value [1] was “+”.
With cyclo(F[Orn]LVF[Orn]LV) the “Activity Anti-bacterial” value [1] was “+”.
With cyclo([Phg]RLV[Phg]RLV) the “Activity Anti-bacterial” value [1] was “+”.
For cyclo(FRLVF[Orn]LV), the “Activity Anti-bacterial” value [1] was “+”.
For CC(=O)NC(Cc1ccccc1)C(=O)NCC(NC(=O)C(CC(C)C)NC(=O)C(CCCNC(=N)N)NC(=O)OCc1ccccc1)C(C)C (stereo not shown) [[AcPhe^5]Cp1], the “antibacterial effect, Streptococcus: group A” value [3] was “+”, the “antibacterial effect, CNS incl. resistant and multiresistant MRSE” value [4] was “+” and the “antibacterial effect, S. pneumoniae” value [7] was “+”. For the same compound, the “antibacterial effect, Streptococcus: group C” value [8] was “+”, the “antibacterial effect, Streptococcus: group G” value [9] was “+” and the “antibacterial effect, Staphylococci incl. multi-resistant MRSA” value [11] was “+”. The “growth inhibition of approximately 100 strain of MRSA” value [11] was “strongly inhibited in their growth”, the “antibacterial effect, L. monocytogenes” value [14] was “+” and the “MIC Aspergillus niger ATCC 16404” value [17] was 256 µg/mL (≈ 368 µM). For the same compound, the “MIC Candida albicans ATCC 10231” value [18] was 512 µg/mL (≈ 737 µM), the “antibacterial effect, E. coli and other Gram-negatives” value [19] was “−” and the “antibacterial effect, α-haemolytic Streptococci” value [20] was “−”. For the same compound, the “antibacterial effect, Streptococcus: group B” value [21] was “+”.
In the case of “Mpa-Phe-Arg-Leu-Val-Phe-Cys-NH2 ([Mpa]FRLVFC-NH2; cysteine pairing not given here)”, the “Activity Anti-bacterial” value [1] is reported as “+”.
In the case of cyclo([dY]RLV[dY]RLV), the “Activity Anti-bacterial” value [1] is reported as “+”.
